In PubChem BioAssay (NCI) one finds TGI and GI50 data, which are given here for 15 molecules.

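48-hour exposure; five concentrations; linearly interpolated endpoints. The concentration for 50% growth inhibition is given as GI50. TGI is the concentration that stops growth completely.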

Test systems include HCT-116 colon; A498 renal; OVCAR-8 ovarian; ACHN renal; OVCAR-3 ovarian; SN12C renal; HCT-15 colon; NCI/ADR-RES ovarian; MDA-MB-435; PC-3 prostate.
Experiment in all cases: NCI-60 cell line screen, 48 h

In the case of `COC(=O)C(CC(C)=O)CS(=O)(=O)CC(=O)C(=O)Nc1cccc([N+](=O)[O-])c1` (stereo not drawn), the TGI in the assay on HCT-116 colon, with A498 renal, in the assay with OVCAR-8 ovarian, in the assay with ACHN renal, with OVCAR-3 ovarian and in the assay on SN12C renal was > 100 µM throughout. For the same molecule, the TGI in the assay with HCT-15 colon is > 100 µM.

As for `CCOC(=O)C1=C(C)N(Cc2ccccc2)C(=O)C1CC#N` (stereo not drawn), the TGI in the assay with HCT-116 colon, in the assay on A498 renal, with OVCAR-8 ovarian, with ACHN renal, with OVCAR-3 ovarian and with SN12C renal was > 100 µM in each case. The TGI in the assay on HCT-15 colon is > 100 µM.

With `Clc1nc(Cl)c2c3c(sc2n1)CCCC3`, the GI50 is 3.95 µM in the assay with HCT-116 colon; > 100 µM with A498 renal; 4.38 µM in the assay with OVCAR-8 ovarian; 5.27 µM in the assay with ACHN renal; 3.3 µM with OVCAR-3 ovarian; 3.26 µM in the assay on SN12C renal. Also, the GI50 with HCT-15 colon is 4.07 µM; with NCI/ADR-RES ovarian it was 5.29 µM; in the assay with MDA-MB-435, 3.65 µM. The TGI with HCT-116 colon is > 100 µM; with A498 renal, > 100 µM; in the assay on OVCAR-8 ovarian, > 100 µM; in the assay on ACHN renal it was > 100 µM; in the assay on OVCAR-3 ovarian, > 30.4 µM; in the assay with SN12C renal it was > 100 µM. Moreover, the TGI with HCT-15 colon, with NCI/ADR-RES ovarian and in the assay on MDA-MB-435 was > 100 µM throughout.

Turning to `COc1ccc2c(c1)C1OCCNC1CC2` (stereo not drawn), the TGI in the assay on HCT-116 colon, with PC-3 prostate, in the assay with A498 renal, with OVCAR-8 ovarian, in the assay on ACHN renal and in the assay on SN12C renal was > 100 µM in each case. Also, the TGI with HCT-15 colon, in the assay on NCI/ADR-RES ovarian and with MDA-MB-435 was > 100 µM throughout.

As to `Cc1cc(=O)n2c3c(c4c(cc13)c(CO)cc(=O)n4C)OC2`, the TGI with HCT-116 colon was 15.8 µM; in the assay with A498 renal, 72.5 µM; in the assay on OVCAR-8 ovarian it was 39.1 µM; in the assay on ACHN renal it was 63.5 µM; with OVCAR-3 ovarian, 40.1 µM; with SN12C renal it was > 100 µM.

`O=C(N/C(=C\c1ccc(/C=C(\NC(=O)c2ccccc2)c2nc3cc(Cl)ccc3[nH]2)cc1)c1nc2cc(Cl)ccc2[nH]1)c1ccccc1`: the TGI in the assay with HCT-116 colon was 66.2 µM; with A498 renal, > 100 µM; in the assay with OVCAR-8 ovarian, > 100 µM; with ACHN renal, > 100 µM; in the assay on OVCAR-3 ovarian it was > 100 µM; with SN12C renal, > 100 µM. The TGI with HCT-15 colon worked out at 76.1 µM.

Consider `CC1(c2cccc(N)c2)C2C(=O)NC(=O)C1C(=O)NC2=O` (stereo not drawn), for which the TGI in the assay with A498 renal was 99.6 µM; in the assay on OVCAR-8 ovarian it was > 100 µM; in the assay on ACHN renal, 78.5 µM; in the assay on OVCAR-3 ovarian, 57.1 µM; with SN12C renal it was 97.7 µM; in the assay with HCT-15 colon, > 100 µM.

Regarding `COC(=O)NN1C(C)=C(C(=O)OC)C2(C#N)C(C(=O)OC)=C(C)N(NC(=O)OC)C12N` (stereo not drawn), the TGI in the assay on HCT-116 colon, with A498 renal, in the assay with OVCAR-8 ovarian, in the assay with ACHN renal, with SN12C renal and with HCT-15 colon was > 100 µM each time.

`CCN(CC)CCOc1ccc(/C=C2\C[C@H]3[C@H]4CC=C5C[C@@H](O)CC[C@]5(C)[C@H]4CC[C@]3(C)[C@H]2O)cc1OC`: the GI50 was 14.6 µM in the assay with HCT-116 colon; 12.9 µM in the assay on OVCAR-8 ovarian; 9.23 µM with ACHN renal; 7.96 µM in the assay on OVCAR-3 ovarian; 6.78 µM in the assay with SN12C renal; 9.19 µM in the assay on HCT-15 colon. The GI50 in the assay on NCI/ADR-RES ovarian was 9.98 µM; in the assay on MDA-MB-435, 7.75 µM. The TGI in the assay on HCT-116 colon was > 50 µM; in the assay on OVCAR-8 ovarian, 26.5 µM; with ACHN renal, 17.4 µM; in the assay with OVCAR-3 ovarian, 17.8 µM; in the assay on SN12C renal, 14 µM; in the assay on HCT-15 colon, 18.5 µM. In addition, the TGI was determined as 22 µM in the assay on NCI/ADR-RES ovarian and 16.5 µM with MDA-MB-435.

Turning to `O=C(NNc1ccc(F)cc1)C1CCC(CNS(=O)(=O)c2ccc(Cl)c(Cl)c2)CC1` (stereo not drawn), the GI50 in the assay on HCT-116 colon was 6.51 µM; in the assay with PC-3 prostate it was 6.3 µM; in the assay with OVCAR-8 ovarian, 8.79 µM; in the assay on ACHN renal, 4.08 µM; in the assay on OVCAR-3 ovarian, 2.11 µM; with SN12C renal, 7.97 µM. Moreover, the results for the GI50 in the assay on HCT-15 colon, in the assay with NCI/ADR-RES ovarian and in the assay on MDA-MB-435 were 7.63 µM, 8.79 µM and 2.01 µM, respectively. Besides, the TGI in the assay with HCT-116 colon was 33.9 µM; in the assay on PC-3 prostate it was 39.5 µM; in the assay on OVCAR-8 ovarian, 35.6 µM; in the assay with ACHN renal, 13.4 µM; with OVCAR-3 ovarian, 13.9 µM; with SN12C renal, > 50 µM. In addition, the TGI is > 50 µM in the assay on HCT-15 colon, 31.5 µM in the assay on NCI/ADR-RES ovarian and 35.1 µM in the assay with MDA-MB-435.

With `Cc1ccc2c(c1)C1(OC(=O)c3ccccc31)c1ccc(F)cc1O2` (stereo not drawn), the TGI with HCT-116 colon, with OVCAR-8 ovarian, in the assay with OVCAR-3 ovarian and in the assay with SN12C renal was > 100 µM throughout.

`Cc1ccc2c(c1)C1C(CO2)C(c2ccccc2)=NN1c1ccccc1` (stereo not drawn): the TGI in the assay with HCT-116 colon, in the assay on A498 renal, in the assay with OVCAR-8 ovarian, in the assay with ACHN renal and in the assay with OVCAR-3 ovarian was > 100 µM each time.

For the molecule `Cn1c(=O)c2ccc(-c3ccc(Br)cc3)nc2n(C)c1=O`, the TGI in the assay with HCT-116 colon, in the assay on A498 renal, in the assay with OVCAR-8 ovarian, with OVCAR-3 ovarian and in the assay on HCT-15 colon was > 100 µM each time.

Turning to `CSc1ccc(OCC2OC2O)cc1` (stereo not drawn), the TGI in the assay with HCT-116 colon is 36.9 µM; in the assay on A498 renal it was > 100 µM; in the assay with OVCAR-8 ovarian, > 100 µM; in the assay with ACHN renal it was > 100 µM; with OVCAR-3 ovarian it was > 100 µM; in the assay with SN12C renal, > 100 µM. In the assay on HCT-15 colon, the TGI is > 54.2 µM.

As to `COC(=O)C1=Cc2cc(OC)c(OC)cc2[C@H](c2ccc(OC)c(OC)c2)C1C(=O)OC` (stereo partly drawn), the TGI in the assay on HCT-116 colon, in the assay with A498 renal, in the assay with OVCAR-8 ovarian, with ACHN renal, in the assay on OVCAR-3 ovarian and in the assay on SN12C renal was > 100 µM each time. Further, the TGI in the assay on HCT-15 colon is > 100 µM.
